These results are taken from patent US10420341B2, “Herbicidal phenylpyrimidines” (BASF SE, priority 2015, dated 2019).

Assay [1] relates to APESV. Briefly: greenhouse pre-emergence herbicidal test. In kind it is in vivo, Apera spica-venti. The conditions noted are these: pre-emergence method, scale from 0 to 100. In short, it runs like this: (§1)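 After each species was sown separately, test compounds in water were applied at once with finely distributing nozzles. Containers were then irrigated and covered until rooting, held at species-dependent temperatures (10-25° C. or 20-35° C.), and assessed over 2 to 4 weeks on a 0-100 injury scale.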

In assay [2] the test system is ECHCG. Nature of the assay: greenhouse pre-emergence herbicidal test. In kind it is in vivo, Echinocloa crus-galli. The conditions noted are these: pre-emergence method, scale from 0 to 100. In short, it runs like this: as §1
Assay [3] concerns ALOMY. Nature of the assay: greenhouse post-emergence herbicidal test. In kind it is in vivo, Alopercurus myosuroides. Particulars: post-emergence method, scale from 0 to 100. Summed up:
(§2)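 Read-out is a visual 0–100 injury rating, 100 meaning complete destruction of at least aerial parts and 0 meaning normal growth. It was taken over 2–4 weeks after plants 3–15 cm tall were treated with compound suspended or emulsified in water.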

The subject of assay [4] is AVEFA. Nature of the assay: greenhouse post-emergence herbicidal test. The conditions noted are these: post-emergence method, scale from 0 to 100. Type of assay: in vivo, Avena fatua. From the text: (§3) The seeds of the test plants were sown separately for each species. For the post-emergence treatment, the test plants were first grown to a height of 3 to 15 cm, depending on the plant habit, and only then treated with the active ingredients which had been suspended or emulsified in water. For this purpose, the test plants were either sown directly and grown in the same containers, or they were first grown separately as seedlings and transplanted into the test containers a few days prior to treatment. Depending on the species, the plants were kept at 10-25° C. or 20-35° C., respectively. The test period extended over 2 to 4 weeks. During this time, the plants were tended, and their response to the individual treatments was evaluated. Evaluation was carried out using a scale from 0 to 100. 100 means no emergence of the plants, or complete destruction of at least the aerial moieties, and 0 means no damage, or normal course of growth. […] The plants used in the greenhouse experiments were of the following species: [table]

Assay [5] relates to ECHCG. Briefly: greenhouse post-emergence herbicidal test. In kind it is in vivo, Echinocloa crus-galli. Particulars: post-emergence method, scale from 0 to 100. In short, it runs like this:
as §2

Assay [6] has as its system AMARE. Briefly: greenhouse post-emergence herbicidal test. In kind it is in vivo, Amaranthus retroflexus. Particulars: post-emergence method, scale from 0 to 100.
From the text: as §3

As to `O=C(O)c1nc(C(F)(F)F)ncc1-c1ccccc1Cl` [example 315], the “herbicidal activity against APESV” value in assay [1] (application rate 1000 g/ha) was “good (A good herbicidal activity is given at values of at least 70)”. In addition, the “herbicidal activity against ECHCG” value in assay [2] (application rate 1000 g/ha) is “very good (a very good herbicidal activity is given at values of at least 85)”; in assay [5] (application rate 1000 g/ha), “good (A good herbicidal activity is given at values of at least 70)”. For the same compound, in assay [3] (application rate 1000 g/ha), the “herbicidal activity against ALOMY” value was “good (A good herbicidal activity is given at values of at least 70)”. In addition, the “herbicidal activity against AVEFA” value in assay [4] (application rate 1000 g/ha) is on record as “good (A good herbicidal activity is given at values of at least 70)”.
`O=C(OCc1ccccc1)c1nc(C2CC2)ncc1-c1ccccc1Cl` [example 254]: the “herbicidal activity against APESV” value in assay [1] (application rate 1000 g/ha) is on record as “very good (a very good herbicidal activity is given at values of at least 85)”. The “herbicidal activity against ECHCG” value in assay [2] (application rate 1000 g/ha) and in assay [5] (application rate 1000 g/ha) was “very good (a very good herbicidal activity is given at values of at least 85)” in each case. Moreover, the “herbicidal activity against ALOMY” value in assay [3] (application rate 1000 g/ha) is “very good (a very good herbicidal activity is given at values of at least 85)”. The “herbicidal activity against AVEFA” value in assay [4] (application rate 1000 g/ha) was “very good (a very good herbicidal activity is given at values of at least 85)”.
`COC(=O)c1nc(C2CC2)ncc1-c1ccc(OC)cc1F` [example 295]: the “herbicidal activity against AMARE” value in assay [6] (application rate 500 g/ha) is reported as “good (A good herbicidal activity is given at values of at least 70)”.
For the compound `CCc1ccccc1-c1cnc(C2CC2)nc1C(=O)OC` [example 237], the “herbicidal activity against ECHCG” value in assay [2] (application rate 1000 g/ha) and in assay [5] (application rate 1000 g/ha) was “very good (a very good herbicidal activity is given at values of at least 85)” in each case. Also, the “herbicidal activity against AMARE” value in assay [6] (application rate 1000 g/ha) is on record as “very good (a very good herbicidal activity is given at values of at least 85)”.
For the compound `Cc1ccccc1-c1cnc([S+](C)[O-])nc1C(=O)O` (stereo not drawn) [example 126], the “herbicidal activity against AMARE” value in assay [6] (application rate 2000 g/ha) is listed as “very good (a very good herbicidal activity is given at values of at least 85)”.
For the compound `C[Si](C)(C)CCOC(=O)c1nc(C2CC2)ncc1-c1ccccc1Cl` [example 258], the “herbicidal activity against ECHCG” value in assay [2] (application rate 1000 g/ha) and in assay [5] (application rate 1000 g/ha) was “very good (a very good herbicidal activity is given at values of at least 85)” throughout. Further, the “herbicidal activity against ALOMY” value in assay [3] (application rate 1000 g/ha) is “very good (a very good herbicidal activity is given at values of at least 85)”. For the same compound, the “herbicidal activity against AVEFA” value in assay [4] (application rate 1000 g/ha) was “very good (a very good herbicidal activity is given at values of at least 85)”.
On to `CCSc1ccccc1-c1cnc(SC)nc1C(=O)O` [example 113], for which the “herbicidal activity against AMARE” value in assay [6] (application rate 2000 g/ha) is listed as “very good (a very good herbicidal activity is given at values of at least 85)”.
`O=C(Oc1ccccc1)c1nc(C2CC2)ncc1-c1ccccc1Cl` [example 255]: the “herbicidal activity against APESV” value in assay [1] (application rate 1000 g/ha) was “very good (a very good herbicidal activity is given at values of at least 85)”. The “herbicidal activity against ECHCG” value in assay [2] (application rate 1000 g/ha) and in assay [5] (application rate 1000 g/ha) was “very good (a very good herbicidal activity is given at values of at least 85)” in each case. Further, the “herbicidal activity against ALOMY” value in assay [3] (application rate 1000 g/ha) is reported as “very good (a very good herbicidal activity is given at values of at least 85)”. In assay [4] (application rate 1000 g/ha), the “herbicidal activity against AVEFA” value is given as “very good (a very good herbicidal activity is given at values of at least 85)”.
Take `O=C(O)c1nc(C2CC2)ncc1-c1ccccc1I` [example 311]: the “herbicidal activity against APESV” value in assay [1] (application rate 500 g/ha) was “very good (a very good herbicidal activity is given at values of at least 85)”. The “herbicidal activity against ECHCG” value in assay [2] (application rate 500 g/ha) and in assay [5] (application rate 500 g/ha) was “very good (a very good herbicidal activity is given at values of at least 85)” each time. The “herbicidal activity against ALOMY” value in assay [3] (application rate 500 g/ha) is “very good (a very good herbicidal activity is given at values of at least 85)”. For the same compound, the “herbicidal activity against AVEFA” value in assay [4] (application rate 500 g/ha) is reported as “very good (a very good herbicidal activity is given at values of at least 85)”.
As for `Cc1ccccc1-c1cnc(OC(C)C)nc1C(=O)O` [example 72], in assay [6] (application rate 500 g/ha), the “herbicidal activity against AMARE” value is reported as “very good (a very good herbicidal activity is given at values of at least 85)”. In assay [5] (application rate 500 g/ha), the “herbicidal activity against ECHCG” value is on record as “very good (a very good herbicidal activity is given at values of at least 85)”.
For `COc1ccc(C(F)(F)F)cc1-c1cnc(SC)nc1C(=O)O` [example 107], the “herbicidal activity against AMARE” value in assay [6] (application rate 2000 g/ha) is “very good (a very good herbicidal activity is given at values of at least 85)”.
Regarding `COC(=O)c1nc(C2CC2)ncc1-c1ccccc1I` [example 312], the “herbicidal activity against APESV” value in assay [1] (application rate 500 g/ha) is recorded as “very good (a very good herbicidal activity is given at values of at least 85)”. For the same compound, the “herbicidal activity against ECHCG” value in assay [2] (application rate 500 g/ha) and in assay [5] (application rate 500 g/ha) was “very good (a very good herbicidal activity is given at values of at least 85)” throughout. Besides, in assay [3] (application rate 500 g/ha), the “herbicidal activity against ALOMY” value was “very good (a very good herbicidal activity is given at values of at least 85)”. For the same compound, the “herbicidal activity against AVEFA” value in assay [4] (application rate 500 g/ha) is “very good (a very good herbicidal activity is given at values of at least 85)”.
Consider `C=Cc1ncc(-c2ccccc2Cl)c(C(=O)OC)n1` [example 292], for which, in assay [6] (application rate 1000 g/ha), the “herbicidal activity against AMARE” value was “very good (a very good herbicidal activity is given at values of at least 85)”.
On to `CSc1ncc(-c2cccc(C)c2C)c(C(=O)O)n1` [example 102], for which the “herbicidal activity against AMARE” value in assay [6] (application rate 2000 g/ha) is given as “very good (a very good herbicidal activity is given at values of at least 85)”.
As to `CSc1ncc(-c2ccc(C)cc2C)c(C(=O)O)n1` [example 97], the “herbicidal activity against AMARE” value in assay [6] (application rate 2000 g/ha) was “very good (a very good herbicidal activity is given at values of at least 85)”. The “herbicidal activity against ECHCG” value in assay [5] (application rate 2000 g/ha) is “good (A good herbicidal activity is given at values of at least 70)”.
For `O=C(SCc1ccccc1)c1nc(C2CC2)ncc1-c1ccccc1Cl` [example 280], the “herbicidal activity against APESV” value in assay [1] (application rate 500 g/ha) is listed as “very good (a very good herbicidal activity is given at values of at least 85)”. The “herbicidal activity against AMARE” value in assay [6] (application rate 500 g/ha) is recorded as “very good (a very good herbicidal activity is given at values of at least 85)”.
With `COc1ccc(OC(=O)c2nc(C3CC3)ncc2-c2ccccc2Cl)cc1` [example 259], the “herbicidal activity against APESV” value in assay [1] (application rate 500 g/ha) is recorded as “very good (a very good herbicidal activity is given at values of at least 85)”. Moreover, the “herbicidal activity against ECHCG” value is reported as “very good (a very good herbicidal activity is given at values of at least 85)” in assay [2] (application rate 500 g/ha) and “good (A good herbicidal activity is given at values of at least 70)” in assay [5] (application rate 500 g/ha). Besides, the “herbicidal activity against ALOMY” value in assay [3] (application rate 500 g/ha) is given as “very good (a very good herbicidal activity is given at values of at least 85)”. In addition, in assay [4] (application rate 500 g/ha), the “herbicidal activity against AVEFA” value is “very good (a very good herbicidal activity is given at values of at least 85)”.
As for `COc1ccc(OC)c(-c2cnc(SC)nc2C(=O)O)c1` [example 108], in assay [2] (application rate 2000 g/ha), the “herbicidal activity against ECHCG” value is “very good (a very good herbicidal activity is given at values of at least 85)”. For the same compound, the “herbicidal activity against AMARE” value in assay [6] (application rate 2000 g/ha) is “very good (a very good herbicidal activity is given at values of at least 85)”.
`COC(=O)c1nc(C2CC2(F)F)ncc1-c1ccccc1Cl` (stereo not drawn) [example 293]: the “herbicidal activity against AMARE” value in assay [6] (application rate 1000 g/ha) was “good (A good herbicidal activity is given at values of at least 70)”.
`COC(=O)c1nc(C2CC2)ncc1-c1cc(Br)ccc1F` [example 191]: the “herbicidal activity against APESV” value in assay [1] (application rate 1000 g/ha) was “very good (a very good herbicidal activity is given at values of at least 85)”. In addition, the “herbicidal activity against ECHCG” value in assay [2] (application rate 1000 g/ha) and in assay [5] (application rate 1000 g/ha) was “very good (a very good herbicidal activity is given at values of at least 85)” each time. Also, the “herbicidal activity against ALOMY” value in assay [3] (application rate 1000 g/ha) was “good (A good herbicidal activity is given at values of at least 70)”. Besides, the “herbicidal activity against AVEFA” value in assay [4] (application rate 1000 g/ha) is “good (A good herbicidal activity is given at values of at least 70)”.
As to `COC(=O)c1nc(C2CC2)ncc1-c1c(Br)ccc(OC)c1Cl` [example 212], in assay [6] (application rate 500 g/ha), the “herbicidal activity against AMARE” value is recorded as “very good (a very good herbicidal activity is given at values of at least 85)”. Further, the “herbicidal activity against ECHCG” value in assay [5] (application rate 500 g/ha) is given as “very good (a very good herbicidal activity is given at values of at least 85)”.
Turning to `CSc1ncc(-c2cc(C(F)(F)F)ccc2C)c(C(=O)O)n1` [example 93], in assay [6] (application rate 2000 g/ha), the “herbicidal activity against AMARE” value is recorded as “very good (a very good herbicidal activity is given at values of at least 85)”.
